# Measured values taken from patent US20080077999A1, “Using Nonhuman Animal Model, Method of Measuring Transcription Activity Method of Measuring Cell Quantity and Method of Measuring Tumor Volume” (Eisai R&D Management Co., Ltd., priority 2004, published 2008).
# B1: IL4: human IL4 (Calbiochem, 407635), used as stimulus of STAT6-PLAP reporter cells (protein, UniProt P05112 25-153, looked up)
# Interleukin-4: HKCDITLQEIIKTLNSLTEQKTLCTELTVTDIFAASKNTTEKETFCRAATVLRQFYSHHEKDTRCLGATAQQFHRHKQLIRFLKRLDRNLWGLAGLNSCPVKEANQSTLENFLERLKTIMREKYSKCSS
# Columns and labels:
# [1] = tested on: transcriptional activity through STAT6 activation by IL4 stimulation; assay: Test of inhibitory action in mouse air pouch model introduced with E9 cells (blood PLAP activity after IL4 stimulation); type: in vivo, CDF1 mouse; details: orally administered 20 mg/kg, 1 hour before IL4 injection into air pouch; plasma 24 hours after IL4
# Protocol: 5% cytodex3 (Amersham Bioscience, 17-0485-01) solution and 2% CMC solution (Daiichi Kogyo Seiyaku Co., Ltd.) were prepared. More specifically, 5 g of cytodex3 was suspended in 100 ml of PBS (SIGMA, R8537) and sterilized by autoclaving. On the other hand, the 2% CMC solution was prepared by adding 2 g of CMC in 100 ml of PBS while stirring with a stirrer bar and followed by sterilization by autoclaving.
# Then, E9 cells were subjected to trypsin-EDTA treatment to be removed from the wall of the vessel and the cells were suspended in DMEM to make 1.0×10^6 cells/ml. 0.2 g of cytodex3 was mixed with 1.0×10^7 cells/ml of E9 cells. More specifically, 4 ml of 5% cytodex3 solution was mixed with 10 ml of 1.0×10^6 cells/ml of cell suspension. Then, the cell/cytodex3 suspension was inoculated on a non-tissue culture plate (IWAKI, SH90-15) and cultured in a CO2 incubator. […]
# After 24 hours, orbital blood drawing was conducted using a heparin-treated Terumo hematocrit capillary tube (TERUMO Corporation, VC-H075H). […] To inactivate endogenous alkaline phosphatase, the plasma sample was treated in a hot water bath at 65° C. for 10 minutes and then PLAP activity derived from E9 cells in the plasma was measured. […] Subsequently, while shielding light, the mixture was incubated at room temperature for 1 hour, followed by measurement of intensity of chemiluminescence using a plate reader (Perkin Elmer, ARVO).
# [2] = tested on: transcriptional activity through STAT6 activation by IL4 stimulation; details: in vitro; cited from earlier work
# [3] = tested on: E9 cell (HEK293 with STAT6-PLAP reporter plasmid and STAT6-expression vector plasmid); assay: PLAP activity in culture supernatant of cells stably expressing STAT6-PLAP reporter plasmid and STAT6 expression vector plasmid upon human IL4 stimulation; type: cell-based; details: human IL4 final concentration 1 ng/ml, next day
# Protocol: More specifically, the cloned cell was subjected to trypsin-EDTA treatment to be removed from the wall of the vessel and suspended in DMEM and cells were inoculated on a 96-well cell culture plate to be 1.0×10^4 cells/190 μl/well. On the next day, 10 μl of 20 ng/ml human IL4 (Calbiochem, 407635) was added to the culture medium at a final concentration of 1 ng/ml. On the next day, the culture supernatant was recovered and the PLAP activity in the culture supernatant was measured.
# More specifically, 100 μl of PLAP buffer (0.28 M Na2CO3—NaHCO3 pH 10.0, 8 mM MgSO4) was added to a black plate for ELISA (Sumitomo Bakelite Co., Ltd., No. MS-8496K), and 10 μl of the culture supernatant which had been treated in a hot water bath at 65° C. for 10 minutes was added thereto. Then, 50 μl of Lumi-Phos 530 (Lumigen, Inc.) was added, followed by mixing. Subsequently, while shielding light, the mixture was incubated at room temperature for 1 hour, followed by measurement of intensity of chemiluminescence using a plate reader (Perkin Elmer, ARVO). […] Hereinafter, this clone is named E9 cell.
# [4] = tested on: E9 cells (STAT6-PLAP reporter); assay: Mouse air pouch model introduced with E9 cells: plasma PLAP activity upon human IL4 stimulation; type: in vivo, CDF1 mouse; details: 1 ml of 3 ng/ml human IL4 injected into air pouch, plasma after 24 hours
# Protocol: 5% cytodex3 (Amersham Bioscience, 17-0485-01) solution and 2% carboxymethylcellulose (hereinafter, also referred to as CMC) solution (Daiichi Kogyo Seiyaku Co., Ltd.) were prepared. More specifically, 5 g of cytodex3 was suspended in 100 ml of PBS (SIGMA, R8537) and sterilized in an autoclave. On the other hand, the 2% CMC solution was prepared by adding 2 g of CMC in 100 ml of PBS while stirring with a stirrer bar, followed by sterilization in the autoclave.
# Then, the E9 cells were subjected to trypsin-EDTA treatment to be removed from the wall of the vessel and the cells were suspended in DMEM to be 1.0×10^6 cells/ml. 0.2 g of cytodex3 was mixed with 1.0×10^7 cells/ml E9 cells. More specifically, 4 ml of 5% cytodex3 solution was added to 10 ml of 1.0×10^6 cells/ml cell suspension. […]
# Under anesthesia with diethyl ether (WAKO, 055-01155), 3 ml of air was introduced under the skin on the back of a CDF1 mouse (Charles River Japan) using a 5-ml syringe with a 27 G needle to make an air pouch. […] To inactivate endogenous alkaline phosphatases, the plasma sample was treated in a hot water bath at 65° C. for 10 minutes and then the PLAP activity derived from E9 cells in the plasma was measured. […] Subsequently, while shielding light, the mixture was incubated at room temperature for 1 hour, followed by measurement of intensity of chemiluminescence using a plate reader (Perkin Elmer, ARVO).
Molecule,suppression of the PLAP activity activated by the IL4 stimulation as compared with the control group [1] [%],inhibition of transcriptional activity through STAT6 activation by IL4 stimulation [2],PLAP activity in culture supernatant upon IL4 stimulation compared to non-stimulating condition [3],PLAP activity secreted in blood upon IL4 stimulation [4]
"Cl.Cl.Cl.Fc1ccc(-c2n[nH]cc2-c2ccc3ncc(-c4nccs4)n3c2)cc1 [test compound, 2-(6-[3-(4-fluorophenyl)-1H-4-pyrazolyl]imidazo[1,2-a]pyridin-3-yl)-1,3-thiazole trihydrochloride]",94.1,inhibit transcriptional activity through STAT6 activation,,
B1,,,higher PLAP activity was induced,remarkable increase of PLAP activity
